Consider 10 molecules from ChEMBL document CHEMBL1201862, “PubChem BioAssay data set” (2004).

Common to all, as to experiment: inhibition of tumour cell growth, NCI panel, 48 h
The test system of assay [1] is SK-MEL-28.
The test system of assay [2] is U-251.
The subject of assay [3] is SR.
Assay [4] deals with MDA-N.
Assay [5] has as its system MDA-MB-231.
The subject of assay [6] is SK-OV-3.
The subject of assay [7] is KM12.
In assay [8] the test system is HT-29.
In assay [9] the test system is HOP-92.
The subject of assay [10] is SF-268.
The subject of assay [11] is LOX IMVI.
Assay [12] deals with RXF 393.
The subject of assay [13] is SK-MEL-5.
In assay [14] the test system is 786-0.
Assay [15] relates to M14.
Assay [16] concerns NCI-H460.
Assay [17] has as its system K562.
Assay [18] deals with CCRF-CEM.
The subject of assay [19] is IGROV-1.
Assay [20] concerns SK-MEL-2.

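All cell lines were grown in 96-well plates and treated with compound for 48 hours. GI50 = concentration required for 50% inhibition of growth.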 The source made the active and inactive calls. Rule as the data show it: active = GI50 up to about 1.1 µM and inactive = higher.

As to `CCCCc1ccc(-n2c(C)c(COC(=O)NC)c(COC(=O)NC)c2C)cc1`, the GI50 is 19.1 µM (inactive) in assay [1]; 4.92 µM (inactive) in assay [2]; 0.818 µM (active) in [3]; 13.2 µM (inactive) in [4]; 4.9 µM (inactive) in assay [5]; 3.76 µM (inactive) in assay [6]. The GI50 was 12.7 µM (inactive) in [7]; 11.1 µM (inactive) in assay [8]; 2.74 µM (inactive) in assay [9]; 4.81 µM (inactive) in assay [10]; 4.65 µM (inactive) in assay [11]; 2.84 µM (inactive) in assay [12]. The GI50 is 11.4 µM (inactive) in [13]; 4.08 µM (inactive) in [14]; 6.12 µM (inactive) in assay [15]; 3.81 µM (inactive) in [16]; 6.03 µM (inactive) in assay [17]; 2.92 µM (inactive) in [18].

Consider `CCCCCCCCCCCCCC(=O)OC(/C=C/C(C)C)C(O)C(O)C(OC)C(=O)NC1CCCCN(C)C1=O` (stereo unspecified), for which the GI50 in assay [1] was 3.61 µM (inactive); in assay [2], 6.5 µM (inactive); in [3] it was 0.773 µM (active); in assay [19] it was 0.457 µM (active); in [4], > 10 µM (inactive); in assay [5], 1.86 µM (inactive). The GI50 in assay [6] was 4.49 µM (inactive); in assay [7], 7.71 µM (inactive); in assay [8], 6.3 µM (inactive); in assay [9], 4 µM (inactive); in [10], 5.27 µM (inactive); in assay [11] it was 7.23 µM (inactive). Further, the GI50 is 1.45 µM (inactive) in [12]; 4.2 µM (inactive) in assay [20]; 3.19 µM (inactive) in assay [13]; 1.28 µM (inactive) in [14]; 1.56 µM (inactive) in assay [15]; 0.687 µM (active) in assay [16]. The results for the GI50 in assay [17] and in assay [18] were 2.59 µM (inactive) and 3.95 µM (inactive), respectively.

Take `CCOC(=O)N1N(c2ccccc2)C(=O)C1(c1ccccc1)c1ccccc1`: the GI50 in assay [1] was > 100 µM (inactive); in [2], 89.1 µM (inactive); in assay [3], 87.5 µM (inactive); in [19] it was > 100 µM (inactive); in assay [4], > 100 µM (inactive); in assay [5], > 100 µM (inactive). The GI50 in assay [6] is > 100 µM (inactive); in [7], 73.5 µM (inactive); in [8], 22 µM (inactive); in assay [9] it was 70.3 µM (inactive); in [10], > 100 µM (inactive); in assay [11], 70.6 µM (inactive). The GI50 in [12] was 28.8 µM (inactive); in assay [20] it was 20.4 µM (inactive); in assay [13] it was 33.8 µM (inactive); in assay [14], > 100 µM (inactive); in assay [15], > 100 µM (inactive); in [17], 34.8 µM (inactive). The GI50 in assay [18] was 66.5 µM (inactive).

`O=C(Oc1cc(=O)c(OC(=O)c2ccccc2)co1)c1ccccc1`: the GI50 was 55.6 µM (inactive) in assay [1]; 64.9 µM (inactive) in assay [2]; 31.7 µM (inactive) in assay [3]; > 100 µM (inactive) in [19]; > 100 µM (inactive) in [4]; > 100 µM (inactive) in [5]. For the same molecule, the GI50 is > 100 µM (inactive) in assay [6]; > 100 µM (inactive) in assay [7]; 84.5 µM (inactive) in [8]; > 100 µM (inactive) in assay [9]; 90.4 µM (inactive) in assay [10]; 36.9 µM (inactive) in [11]. The GI50 in assay [12] is 72.9 µM (inactive); in assay [20] it was > 100 µM (inactive); in assay [13], > 100 µM (inactive); in assay [14], 49.4 µM (inactive); in assay [15], > 100 µM (inactive); in assay [16], > 100 µM (inactive).

In the case of `CN(C(=O)C12C3C4(C(=O)O)C1(C(=O)N(C)C(C)(C)C)C1C2(C(=O)O)C3(C(=O)N(C)C(C)(C)C)C14C(=O)N(C)C(C)(C)C)C(C)(C)C` (stereo unspecified), the GI50 in [1], in assay [2], in assay [3], in [19], in assay [4] and in assay [5] was > 100 µM (inactive) each time. Moreover, the GI50 in [7], in [8], in assay [9], in [10], in [11] and in assay [12] was > 100 µM (inactive) in each case. The GI50 in assay [20], in [13], in assay [14], in [15], in assay [16] and in [17] was > 100 µM (inactive) each time. Also, in assay [18], the GI50 is > 100 µM (inactive).

`Cc1ccc(S(=O)(=O)N2CC3OC(C)(C)OC3C2CO)cc1` (stereo unspecified): the GI50 in assay [1], in [2], in [3], in assay [19], in assay [4] and in assay [5] was > 100 µM (inactive) in each case. Also, the GI50 in assay [6], in assay [7], in [8], in [9], in assay [10] and in assay [12] was > 100 µM (inactive) each time. Also, the GI50 in assay [20], in assay [13], in assay [14], in assay [15], in assay [16] and in assay [17] was > 100 µM (inactive) throughout. Also, the GI50 in assay [18] was > 100 µM (inactive).

Turning to `COc1ccc(NC(=O)c2cc(NC(=O)/C=C/c3ccccc3)c(OC)c(OC)c2)cc1`, the GI50 is 20.4 µM (inactive) in assay [1]; 8.91 µM (inactive) in [2]; 4.03 µM (inactive) in [3]; 3.1 µM (inactive) in assay [4]; 9.55 µM (inactive) in [5]; 51.5 µM (inactive) in [6]. Moreover, the GI50 in assay [7] was 3.83 µM (inactive); in assay [8] it was 8.41 µM (inactive); in assay [9], 16.8 µM (inactive); in [10] it was 56.8 µM (inactive); in assay [11] it was 4.73 µM (inactive); in assay [12], 11.2 µM (inactive). For the same molecule, the GI50 in assay [20] is 2.58 µM (inactive); in assay [13], 5.82 µM (inactive); in [14], 11.7 µM (inactive); in assay [15], > 100 µM (inactive); in assay [16], 11.7 µM (inactive); in assay [17] it was 13.4 µM (inactive). In addition, the GI50 in assay [18] was 7 µM (inactive).

As to `COc1ccc(/C=C\c2cc(OC)c(OC)c(OC)c2)cc1OC(=O)NCCN(C)C`, the GI50 in assay [1] is 11.8 µM (inactive); in [2] it was 0.000125 µM (active); in [3] it was 0.000154 µM (active); in assay [4] it was < 0.0001 µM (active); in [5] it was 0.01 µM (active); in [6], 0.00339 µM (active). The GI50 in [8] is 0.526 µM (active); in assay [9], < 0.0001 µM (active); in [11], 0.000147 µM (active); in assay [12], < 0.0001 µM (active); in [13], < 0.0001 µM (active); in assay [14] it was 0.00161 µM (active). In addition, the GI50 in [15] is 0.000156 µM (active); in [16] it was 0.000125 µM (active); in assay [17], < 0.0001 µM (active); in assay [18], 0.000133 µM (active).

For `CCCC(=O)NC(Nc1ccc(S(=O)(=O)Nc2cc(C)on2)cc1)(C(=O)OCC)C(F)(F)F` (stereo unspecified), the GI50 in assay [1] was > 100 µM (inactive); in assay [2] it was > 100 µM (inactive); in assay [3] it was 9.75 µM (inactive); in assay [19] it was > 100 µM (inactive); in assay [4], > 100 µM (inactive); in [5], > 100 µM (inactive). The GI50 in [6], in assay [7], in [8], in assay [9], in [10] and in [11] was > 100 µM (inactive) throughout. In addition, the GI50 in [12], in assay [20], in assay [13], in assay [14], in assay [15] and in assay [17] was > 100 µM (inactive) in each case. The GI50 in assay [18] was > 100 µM (inactive).

Consider `COc1cc(O)c2c(O)c3c(=O)oc(C)cc3c(OC)c2c1` [PAEPALANTINE], for which the GI50 in [1] was 25 µM (inactive); in assay [2], 32.5 µM (inactive); in assay [3] it was 26.1 µM (inactive); in assay [19], 27 µM (inactive); in assay [4] it was 27.4 µM (inactive); in assay [5] it was 28.4 µM (inactive). Also, the GI50 in [6] is 24.5 µM (inactive); in assay [7], 27.5 µM (inactive); in assay [8], 21.2 µM (inactive); in [9], 16.1 µM (inactive); in [10], 34.3 µM (inactive); in [12] it was 49.8 µM (inactive). For the same molecule, the GI50 is 31.9 µM (inactive) in assay [20]; 25.2 µM (inactive) in assay [13]; 31.1 µM (inactive) in assay [14]; 32 µM (inactive) in assay [15]; 32.4 µM (inactive) in [16]; 23 µM (inactive) in [17]. Moreover, the GI50 in assay [18] is 21.4 µM (inactive).
